Experiments:
[1] = target: Serine/threonine-protein kinase ULK2 (Homo sapiens) (UniProt Q8IYT8); test: Inhibition of wild-type human partial length ULK2 (M1 to S301 residues) expressed in mammalian expression system assessed as residual activity at 1 uM by Kinomescan method relative to control
[2] = target: Cyclin-dependent kinase 4/cyclin D1 (Homo sapiens) (UniProt P11802+P24385); test: Inhibition of wild-type human full length CDK4/cyclinD1 (M1 to E303 residues) expressed in mammalian expression system assessed as residual activity at 1 uM by Kinomescan method relative to control
[3] = target: Mitogen-activated protein kinase 3 (Homo sapiens) (UniProt P27361); test: Inhibition of wild-type human full length ERK1 (M1 to P379 residues) expressed in bacterial expression system assessed as residual activity at 1 uM by Kinomescan method relative to control
[4] = target: Wee1-like protein kinase 2 (Homo sapiens) (UniProt P0C1S8); test: Inhibition of wild-type human partial length WEE2 (M204 to K492 residues) expressed in bacterial expression system assessed as residual activity at 1 uM by Kinomescan method relative to control
[5] = target: Serine/threonine-protein kinase Nek9 (Homo sapiens) (UniProt Q8TD19); test: Inhibition of wild-type human partial length NEK9 (P32 to R328 residues) expressed in bacterial expression system assessed as residual activity at 1 uM by Kinomescan method relative to control
[6] = target: Serine/threonine-protein kinase WNK1 (Homo sapiens) (UniProt Q9H4A3); test: Inhibition of wild-type human partial length WNK1 (Q194 to A490 residues) expressed in mammalian expression system assessed as residual activity at 1 uM by Kinomescan method relative to control
[7] = target: Serine/threonine-protein kinase Sgk1 (Homo sapiens) (UniProt O00141); test: Inhibition of wild-type human partial length SGK (I60 to L431 residues) expressed in mammalian expression system assessed as residual activity at 1 uM by Kinomescan method relative to control
Chain of Serine/threonine-protein kinase Sgk1 (Homo sapiens) (O00141 whole entry, the tested form may be a part): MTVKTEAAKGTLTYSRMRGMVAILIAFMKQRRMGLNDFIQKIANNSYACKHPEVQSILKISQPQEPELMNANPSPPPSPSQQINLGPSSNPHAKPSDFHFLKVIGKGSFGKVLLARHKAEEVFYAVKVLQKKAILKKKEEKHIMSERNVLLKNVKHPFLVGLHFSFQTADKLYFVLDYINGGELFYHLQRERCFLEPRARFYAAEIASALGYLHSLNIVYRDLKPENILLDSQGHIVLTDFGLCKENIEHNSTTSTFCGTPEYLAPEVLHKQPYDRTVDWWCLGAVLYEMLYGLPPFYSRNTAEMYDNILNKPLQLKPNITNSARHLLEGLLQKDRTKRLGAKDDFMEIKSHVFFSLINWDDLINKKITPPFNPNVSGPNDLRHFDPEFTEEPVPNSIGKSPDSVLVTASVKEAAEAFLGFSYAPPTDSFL

[8] = target: Ribosomal protein S6 kinase alpha-1 (Homo sapiens) (UniProt Q15418); test: Inhibition of wild-type human partial length N-terminal RSK1 Kinase domain 1 (M1 to E388 residues) expressed in bacterial expression system assessed as residual activity at 1 uM by Kinomescan method relative to control
Chain of Ribosomal protein S6 kinase alpha-1 (Homo sapiens) (Q15418 whole entry, the tested form may be a part): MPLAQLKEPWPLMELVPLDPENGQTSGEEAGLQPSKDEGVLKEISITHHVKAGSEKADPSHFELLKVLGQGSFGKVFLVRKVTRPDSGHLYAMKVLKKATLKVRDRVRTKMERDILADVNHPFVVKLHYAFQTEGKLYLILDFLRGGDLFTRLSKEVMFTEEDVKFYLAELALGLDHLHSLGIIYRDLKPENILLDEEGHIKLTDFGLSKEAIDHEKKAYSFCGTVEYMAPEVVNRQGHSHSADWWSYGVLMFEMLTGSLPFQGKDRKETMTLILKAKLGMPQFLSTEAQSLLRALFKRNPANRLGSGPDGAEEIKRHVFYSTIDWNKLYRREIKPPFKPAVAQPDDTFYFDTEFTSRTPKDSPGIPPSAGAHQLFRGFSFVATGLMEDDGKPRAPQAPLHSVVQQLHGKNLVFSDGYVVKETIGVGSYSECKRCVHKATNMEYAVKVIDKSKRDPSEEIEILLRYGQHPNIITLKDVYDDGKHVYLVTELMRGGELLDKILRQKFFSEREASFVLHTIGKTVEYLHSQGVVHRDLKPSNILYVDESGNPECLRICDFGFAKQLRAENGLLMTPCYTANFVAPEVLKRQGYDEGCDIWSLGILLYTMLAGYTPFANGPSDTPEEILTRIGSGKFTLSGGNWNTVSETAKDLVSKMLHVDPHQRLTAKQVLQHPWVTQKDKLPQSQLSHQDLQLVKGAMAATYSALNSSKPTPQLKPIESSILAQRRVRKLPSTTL

[9] = target: Focal adhesion kinase 1 (Homo sapiens) (UniProt Q05397); test: Inhibition of wild-type human partial length FAK (D402 to R696 residues) expressed in bacterial expression system assessed as residual activity at 1 uM by Kinomescan method relative to control
[10] = target: T1, Tyrosine-protein kinase BTK (Homo sapiens, UniProt Q06187); test: Inhibition of full length recombinant human N-terminal His tagged […] expressed in baculovirus infected Sf9 insect cells using poly (Glu,Tyr)4:1 as substrate pretreated for 60 mins followed by substrate addition after 1 hr by ADP-Glo luminescence assay
T1 sequence (Q06187 whole entry, the tested form may be a part): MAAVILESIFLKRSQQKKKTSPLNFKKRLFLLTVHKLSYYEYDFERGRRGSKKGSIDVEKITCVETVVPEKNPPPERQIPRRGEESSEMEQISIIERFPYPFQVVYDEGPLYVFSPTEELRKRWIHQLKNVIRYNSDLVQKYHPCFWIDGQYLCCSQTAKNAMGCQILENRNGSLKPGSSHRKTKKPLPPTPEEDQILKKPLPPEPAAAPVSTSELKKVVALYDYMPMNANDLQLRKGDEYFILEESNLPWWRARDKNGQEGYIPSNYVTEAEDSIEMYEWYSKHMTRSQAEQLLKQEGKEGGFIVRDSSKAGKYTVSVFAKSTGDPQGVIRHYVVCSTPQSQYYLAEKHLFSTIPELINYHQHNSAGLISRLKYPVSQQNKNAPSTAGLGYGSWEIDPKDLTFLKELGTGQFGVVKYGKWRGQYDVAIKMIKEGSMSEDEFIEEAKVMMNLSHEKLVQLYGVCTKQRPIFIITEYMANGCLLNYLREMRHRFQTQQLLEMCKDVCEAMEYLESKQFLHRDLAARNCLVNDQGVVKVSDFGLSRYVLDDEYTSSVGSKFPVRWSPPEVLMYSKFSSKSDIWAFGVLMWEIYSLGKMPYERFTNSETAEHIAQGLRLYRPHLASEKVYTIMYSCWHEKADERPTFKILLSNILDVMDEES

[11] = target: Serine/threonine-protein kinase PLK4 (Homo sapiens) (UniProt O00444); test: Inhibition of wild-type human partial length PLK4 (M1 to S273 residues) expressed in mammalian expression system assessed as residual activity at 1 uM by Kinomescan method relative to control
PBMC = test: Cytotoxicity against PBMC (unknwon origin); format: cell-based
[12] = target: Interleukin-1 receptor-associated kinase 3 (Homo sapiens) (UniProt Q9Y616); test: Inhibition of wild-type human partial length IRAK3 (V147 to E596 residues) expressed in bacterial expression system assessed as residual activity at 1 uM by Kinomescan method relative to control
Chain of Interleukin-1 receptor-associated kinase 3 (Homo sapiens) (Q9Y616 whole entry, the tested form may be a part): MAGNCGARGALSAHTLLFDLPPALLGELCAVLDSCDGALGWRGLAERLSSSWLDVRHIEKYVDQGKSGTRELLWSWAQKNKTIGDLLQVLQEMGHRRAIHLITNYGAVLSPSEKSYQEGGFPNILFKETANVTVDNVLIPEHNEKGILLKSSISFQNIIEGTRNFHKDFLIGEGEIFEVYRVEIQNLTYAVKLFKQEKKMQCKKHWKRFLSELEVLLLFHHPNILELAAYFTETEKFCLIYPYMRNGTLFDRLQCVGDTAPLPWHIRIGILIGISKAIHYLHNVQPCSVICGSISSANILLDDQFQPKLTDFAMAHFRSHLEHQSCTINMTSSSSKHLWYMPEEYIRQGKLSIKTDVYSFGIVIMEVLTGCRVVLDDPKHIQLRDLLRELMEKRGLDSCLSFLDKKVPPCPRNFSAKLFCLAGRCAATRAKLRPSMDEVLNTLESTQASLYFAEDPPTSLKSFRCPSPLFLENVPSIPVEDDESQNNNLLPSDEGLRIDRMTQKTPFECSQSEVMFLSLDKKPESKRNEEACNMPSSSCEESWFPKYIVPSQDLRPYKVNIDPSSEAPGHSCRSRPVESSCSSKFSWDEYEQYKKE

[13] = target: Serine/threonine-protein kinase pim-3 (Homo sapiens) (UniProt Q86V86); test: Inhibition of wild-type human partial length PIM3 (G16 to A317 residues) expressed in bacterial expression system assessed as residual activity at 1 uM by Kinomescan method relative to control
[14] = target: T1, Tyrosine-protein kinase BTK; test: Inhibition of BTK auto-phosphorylation at Y223 in human Pfeiffer cells measured after 4 hrs by chemiluminescent assay
[15] = test system: Tyrosine-protein kinase ABL1 (Homo sapiens), P00519 [T315I]; test: Inhibition of human phosphorylated ABL1 T315I mutant (S229 to K512 residues) expressed in mammalian expression system assessed as residual activity at 1 uM by Kinomescan method relative to control
[16] = target: BDNF/NT-3 growth factors receptor (Homo sapiens) (UniProt Q16620); test: Inhibition of wild-type human partial length TRKB (Q547 to G838 residues) expressed in mammalian expression system assessed as residual activity at 1 uM by Kinomescan method relative to control
[17] = target: Dual specificity protein kinase CLK1 (Homo sapiens) (UniProt P49759); test: Inhibition of wild-type human full length CLK1 (M1 to I484 residues) expressed in bacterial expression system assessed as residual activity at 1 uM by Kinomescan method relative to control
Chain of Dual specificity protein kinase CLK1 (Homo sapiens) (P49759 whole entry, looked up, the tested form may be a part): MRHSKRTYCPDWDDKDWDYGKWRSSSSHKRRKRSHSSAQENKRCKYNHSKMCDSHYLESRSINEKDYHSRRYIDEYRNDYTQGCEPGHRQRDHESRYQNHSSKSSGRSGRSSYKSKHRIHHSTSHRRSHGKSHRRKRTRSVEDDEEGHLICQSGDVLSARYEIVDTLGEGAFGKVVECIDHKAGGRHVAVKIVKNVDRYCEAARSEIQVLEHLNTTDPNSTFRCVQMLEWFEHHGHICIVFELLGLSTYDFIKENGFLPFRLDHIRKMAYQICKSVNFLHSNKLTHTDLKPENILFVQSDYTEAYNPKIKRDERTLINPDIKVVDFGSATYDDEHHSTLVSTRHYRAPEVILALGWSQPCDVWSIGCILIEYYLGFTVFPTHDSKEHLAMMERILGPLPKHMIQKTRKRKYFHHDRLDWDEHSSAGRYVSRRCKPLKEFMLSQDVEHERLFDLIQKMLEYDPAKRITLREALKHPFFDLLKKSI

[18] = target: Cyclin-dependent kinase 11A (Homo sapiens) (UniProt Q9UQ88); test: Inhibition of wild-type human partial length CDC2L2 (D391 to K730 residues) expressed in bacterial expression system assessed as residual activity at 1 uM by Kinomescan method relative to control
Chain of Cyclin-dependent kinase 11A (Homo sapiens) (Q9UQ88 whole entry, the tested form may be a part): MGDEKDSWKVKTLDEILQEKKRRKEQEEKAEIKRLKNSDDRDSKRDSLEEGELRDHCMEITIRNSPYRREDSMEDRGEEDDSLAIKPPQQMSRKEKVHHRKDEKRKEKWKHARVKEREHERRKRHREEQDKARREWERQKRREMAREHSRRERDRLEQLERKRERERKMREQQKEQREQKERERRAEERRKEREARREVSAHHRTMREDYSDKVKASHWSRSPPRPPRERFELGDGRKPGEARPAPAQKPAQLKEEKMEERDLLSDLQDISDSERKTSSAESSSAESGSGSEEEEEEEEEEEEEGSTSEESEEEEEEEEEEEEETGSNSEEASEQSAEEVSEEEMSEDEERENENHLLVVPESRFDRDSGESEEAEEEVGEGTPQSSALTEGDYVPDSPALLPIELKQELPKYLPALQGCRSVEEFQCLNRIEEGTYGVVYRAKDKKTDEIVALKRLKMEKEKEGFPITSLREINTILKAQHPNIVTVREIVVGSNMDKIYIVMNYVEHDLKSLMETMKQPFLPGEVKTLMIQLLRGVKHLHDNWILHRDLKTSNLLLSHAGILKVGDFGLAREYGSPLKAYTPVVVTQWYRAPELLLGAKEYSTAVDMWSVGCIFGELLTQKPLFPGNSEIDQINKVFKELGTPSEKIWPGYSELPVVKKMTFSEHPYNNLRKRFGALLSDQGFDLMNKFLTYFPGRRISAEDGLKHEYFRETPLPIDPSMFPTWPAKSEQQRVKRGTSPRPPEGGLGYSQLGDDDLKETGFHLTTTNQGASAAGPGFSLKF

[19] = target: Serine/threonine-protein kinase TBK1 (Homo sapiens) (UniProt Q9UHD2); test: Inhibition of wild-type human full length TBK1 (M1 to L729 residues) expressed in mammalian expression system assessed as residual activity at 1 uM by Kinomescan method relative to control
[20] = target: Serine/threonine-protein kinase Nek7 (Homo sapiens) (UniProt Q8TDX7); test: Inhibition of wild-type human full length NEK7 (M1 to S302 residues) expressed in bacterial expression system assessed as residual activity at 1 uM by Kinomescan method relative to control
[21] = target: Phosphorylase b kinase gamma catalytic chain, liver/testis isoform (Homo sapiens) (UniProt P15735); test: Inhibition of wild-type human partial length PHKG2 (M1 to W300 residues) expressed in bacterial expression system assessed as residual activity at 1 uM by Kinomescan method relative to control
[22] = target: Rhodopsin kinase GRK1 (Homo sapiens) (UniProt Q15835); test: Inhibition of wild-type human full length GRK1 (M1 to S563 residues) expressed in mammalian expression system assessed as residual activity at 1 uM by Kinomescan method relative to control
Chain of Rhodopsin kinase GRK1 (Homo sapiens) (Q15835 whole entry, the tested form may be a part): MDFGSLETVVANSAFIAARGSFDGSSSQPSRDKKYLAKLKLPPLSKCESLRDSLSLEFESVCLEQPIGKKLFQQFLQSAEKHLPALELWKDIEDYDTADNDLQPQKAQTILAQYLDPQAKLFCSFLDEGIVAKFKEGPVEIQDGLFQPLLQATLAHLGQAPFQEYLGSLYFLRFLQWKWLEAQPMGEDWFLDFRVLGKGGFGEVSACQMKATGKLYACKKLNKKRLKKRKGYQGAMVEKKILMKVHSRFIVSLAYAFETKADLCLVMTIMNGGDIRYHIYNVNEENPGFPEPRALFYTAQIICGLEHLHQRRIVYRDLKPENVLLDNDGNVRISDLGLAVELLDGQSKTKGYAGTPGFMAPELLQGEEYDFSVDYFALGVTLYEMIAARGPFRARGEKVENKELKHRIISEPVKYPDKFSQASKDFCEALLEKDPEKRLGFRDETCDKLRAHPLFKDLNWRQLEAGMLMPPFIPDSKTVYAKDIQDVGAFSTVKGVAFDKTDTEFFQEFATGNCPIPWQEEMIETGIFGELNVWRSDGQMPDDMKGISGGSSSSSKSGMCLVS

[23] = target: Bone morphogenetic protein receptor type-1B (Homo sapiens) (UniProt O00238); test: Inhibition of wild-type human partial length BMPR1B (D178 to L502 residues) expressed in mammalian expression system assessed as residual activity at 1 uM by Kinomescan method relative to control
[24] = target: Calcium/calmodulin-dependent protein kinase type II subunit delta (Homo sapiens) (UniProt Q13557); test: Inhibition of wild-type human partial length CAMK2D (M1 to E329 residues) expressed in bacterial expression system assessed as residual activity at 1 uM by Kinomescan method relative to control
[25] = target: Mitogen-activated protein kinase 9 (Homo sapiens) (UniProt P45984); test: Inhibition of wild-type human full length JNK2 (M1 to Q382 residues) expressed in mammalian expression system assessed as residual activity at 1 uM by Kinomescan method relative to control
Chain of Mitogen-activated protein kinase 9 (Homo sapiens) (P45984 whole entry, looked up, the tested form may be a part): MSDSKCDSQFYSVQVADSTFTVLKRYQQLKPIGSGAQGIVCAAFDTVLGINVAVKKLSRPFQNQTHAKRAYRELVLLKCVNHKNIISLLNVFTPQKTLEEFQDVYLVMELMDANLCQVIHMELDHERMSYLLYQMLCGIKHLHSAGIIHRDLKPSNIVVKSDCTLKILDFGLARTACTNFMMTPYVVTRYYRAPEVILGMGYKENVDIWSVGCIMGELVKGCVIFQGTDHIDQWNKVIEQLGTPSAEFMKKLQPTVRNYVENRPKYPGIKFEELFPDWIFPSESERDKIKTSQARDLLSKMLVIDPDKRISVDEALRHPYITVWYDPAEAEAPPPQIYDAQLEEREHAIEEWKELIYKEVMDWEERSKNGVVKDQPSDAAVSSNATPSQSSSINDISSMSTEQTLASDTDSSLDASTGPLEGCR

In the case of `C=CC(=O)Nc1cc(Nc2cc(-c3cccc(NC(=O)c4ccc(C(C)(C)C)cc4)c3C)cn(C)c2=O)ccc1C(=O)N1CCOCC1`, the Activity [1] is reported as 80%, the Activity [2] is reported as 100% and the Activity [3] is reported as 99%. For the same compound, the Activity [4] was 100%, the Activity [5] was 98% and the Activity [6] was 89%. It also gave an Activity [7] of 95%, an Activity [8] of 87% and an Activity [9] of 96%. The IC50 [10] was 7 nM, the Activity [11] was 99% and the Activity (PBMC) was “Non-Toxic”. It also gave an Activity [12] of 96%, an Activity [13] of 98% and an EC50 [14] of under 30 nM. The Activity [15] was 93%, the Activity [16] was 80% and the Activity [17] was 97%. The Activity [18] was 94%, the Activity [19] was 100% and the Activity [20] was 95%. For the same compound, the Activity [21] was 100%, the Activity [22] was 100% and the Activity [23] was 100%. For the same compound, the Activity [24] was 100% and the Activity [25] was 98%.
